11 molecules from US11986471B2, “Compounds and methods of use” (Tango Therapeutics, Inc., priority 2018, dated 2024) can be followed below.

Experiment [1] deals with T1, PRMT5 (Homo sapiens, UniProt O14744).
T1 construct: purchased Viva (custom protein)
Description: PRMT5 IC50 assay in the presence of SAM as cofactor. In kind it is biochemical. In a few lines: (§1)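 MTA-dependent versus SAM-dependent inhibition of human PRMT5 was assessed by IC50; conversion factors of 13.5 and 1.5 gave the corresponding Ki.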

Experiment [2] addresses T1, PRMT5. Briefly: PRMT5 IC50 assay with no cofactor. In kind it is biochemical. The conditions noted are these: read-out: No Co-factor IC50. In outline: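 Ki conversion: SAM arm, Ki=IC50/1.5; MTA arm, Ki=IC50/13.5. No-cofactor arm reported as IC50 only. Selectivity expressed as Ki(SAM)/Ki(MTA).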
Experiment [3] concerns the target T1, PRMT5. Briefly: PRMT5 IC50 assay in the presence of MTA as cofactor. Format: biochemical. The conditions noted are these: for IC50: PRMT5, MTA as cofactor; for SAM/MTA Ratio: ratio between Ki in the presence of SAM and Ki in the presence of MTA. In a few lines: as §1
The subject of a further experiment is HAP1 MTAP-intact. Description: SDMA in-cell western assay, HAP1 MTAP-intact cell line. In kind it is cell-based. The conditions noted are these: Homo sapiens. In outline:
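Using an MTAP-isogenic HAP1 cell pair, inhibition of SDMA formation is read by in-cell western and expressed as IC50. MTAP-selectivity is assigned where the ratio between lines reaches 3 fold or greater.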

In the next experiment the test system is HAP1 MTAP-deleted. Briefly: SDMA in-cell western assay, HAP1 MTAP-deleted cell line. In kind it is cell-based. The following applies: for IC50: Homo sapiens, HAP1 MTAP-deleted cell line; for MTAP Intact/Deleted Ratio: IC50 ratio HAP1 MTAP-intact / HAP1 MTAP-deleted. In a few lines:
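In-cell western for SDMA marks; MTAP-deleted (null) HAP1 background; values given as IC50.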

Bounds are passed on as bounds.

T1 sequence (O14744 whole entry): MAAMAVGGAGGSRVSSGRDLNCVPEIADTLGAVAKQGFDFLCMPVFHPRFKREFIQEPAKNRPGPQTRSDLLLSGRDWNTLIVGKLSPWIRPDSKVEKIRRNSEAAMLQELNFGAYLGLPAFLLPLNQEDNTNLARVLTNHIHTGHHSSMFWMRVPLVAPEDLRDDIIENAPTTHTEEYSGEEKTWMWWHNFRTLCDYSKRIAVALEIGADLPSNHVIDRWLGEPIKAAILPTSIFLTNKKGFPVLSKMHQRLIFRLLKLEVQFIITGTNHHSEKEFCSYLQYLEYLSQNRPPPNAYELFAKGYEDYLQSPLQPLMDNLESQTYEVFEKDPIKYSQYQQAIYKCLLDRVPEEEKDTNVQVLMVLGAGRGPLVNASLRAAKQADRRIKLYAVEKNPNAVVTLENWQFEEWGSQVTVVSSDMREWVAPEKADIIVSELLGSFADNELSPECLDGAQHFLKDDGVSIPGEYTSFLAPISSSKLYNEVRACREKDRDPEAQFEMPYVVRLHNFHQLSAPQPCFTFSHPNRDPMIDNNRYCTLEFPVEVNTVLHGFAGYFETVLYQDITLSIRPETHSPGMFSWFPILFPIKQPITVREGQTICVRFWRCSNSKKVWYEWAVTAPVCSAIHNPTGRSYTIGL
T1 sequence (Q9BQA1 whole entry partner): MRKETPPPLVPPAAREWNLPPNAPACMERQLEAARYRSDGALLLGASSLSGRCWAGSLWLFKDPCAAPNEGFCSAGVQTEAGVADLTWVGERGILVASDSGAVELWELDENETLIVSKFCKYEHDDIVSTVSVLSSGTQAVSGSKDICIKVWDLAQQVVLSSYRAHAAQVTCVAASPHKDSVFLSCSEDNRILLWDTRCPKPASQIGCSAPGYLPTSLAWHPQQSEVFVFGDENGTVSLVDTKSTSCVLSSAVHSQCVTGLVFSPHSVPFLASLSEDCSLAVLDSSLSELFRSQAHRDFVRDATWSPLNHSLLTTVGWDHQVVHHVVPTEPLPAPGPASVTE

The IC50 is the concentration that gives 50% inhibition. Turning to `CN1CCN(c2nc(NC3COC3)cc(C(=O)NC[C@H](O)CN3CCc4c(ccc(OCc5cnco5)c4Cl)C3)n2)CC1` [Compound 285, (S)—N-(3-(5-chloro-6-(oxazol-5-ylmethoxy)-3,4-dihydroisoquinolin-2(1H)-yl)-2-hydroxypropyl)-2-(4-methylpiperazin-1-yl)-6-(oxetan-3-ylamino)pyrimidine-4-carboxamide], the IC50 is 50 to 500 nM on PRMT5 [1]; 500 to 5000 nM at PRMT5 [2]; 50 to 500 nM at PRMT5 [3]; not below 10000 nM in the experiment with HAP1 MTAP-intact; 1000 to 10000 nM with HAP1 MTAP-deleted. Moreover, the “SAM/MTA Ratio” value on PRMT5 [3] is “A (a Ki ratio greater than or equal to 10 fold between the Ki in the presence of SAM and the Ki in the presence of MTA)”. Also, the “MTAP Intact/Deleted Ratio” value in the experiment on HAP1 MTAP-deleted is “C* (an IC50 ratio of less than 3 fold between the IC50 in the HAP1 MTAP-intact cell line and the HAP1 MTAP-deleted cell line)”.

With `CCN1CCN(c2cc(C(=O)NC[C@H](O)CN3CCc4cc(OCc5cnco5)ccc4C3)cc(NC3CCC3)n2)CC1` [Compound 286], the IC50 on PRMT5 [1] fell in the range of 50 to 500 nM; at PRMT5 [2], 500 to 5000 nM; at PRMT5 [3] it was 50 to 500 nM; with HAP1 MTAP-intact it was 1000 to 10000 nM; with HAP1 MTAP-deleted it was 1000 to 10000 nM. The “SAM/MTA Ratio” value at PRMT5 [3] was “A (a Ki ratio greater than or equal to 10 fold between the Ki in the presence of SAM and the Ki in the presence of MTA)”. The “MTAP Intact/Deleted Ratio” value in the experiment with HAP1 MTAP-deleted was “B* (an IC50 ratio greater than or equal to 3 fold but lower than 10 fold between the IC50 in the HAP1 MTAP-intact cell line and the HAP1 MTAP-deleted cell line)”.

On to `CC(C)Cc1cc(C(=O)NC[C@H](O)CN2CCc3c(ccc(OCc4cnco4)c3Cl)C2)cc(NC2CCC2)n1` [Compound 287], for which the IC50 on PRMT5 [1] was 500 to 5000 nM; on PRMT5 [2], not below 5000 nM; on PRMT5 [3], 500 to 5000 nM; in the experiment on HAP1 MTAP-intact it was not below 10000 nM; in the experiment with HAP1 MTAP-deleted it was not below 10000 nM. Also, the “SAM/MTA Ratio” value at PRMT5 [3] is “A (a Ki ratio greater than or equal to 10 fold between the Ki in the presence of SAM and the Ki in the presence of MTA)”. In addition, in the experiment on HAP1 MTAP-deleted, the “MTAP Intact/Deleted Ratio” value is “C* (an IC50 ratio of less than 3 fold between the IC50 in the HAP1 MTAP-intact cell line and the HAP1 MTAP-deleted cell line)”.

Take `O=C(NC[C@H](O)CN1CCc2c(ccc(OCc3cnco3)c2Cl)C1)c1cc(NC2CCC2)nc(N2CCOCC2)c1` [Compound 288, (S)—N-(3-(5-chloro-6-(oxazol-5-ylmethoxy)-3N-dihydroisoquinolin-2(1H)-yl)-2-hydroxypropyl)-2-(cyclobutylamino)-6-morpholinoisonicotinamide]: the IC50 is 500 to 5000 nM at PRMT5 [1]; not below 5000 nM on PRMT5 [2]; 50 to 500 nM at PRMT5 [3]; not below 10000 nM in the experiment on HAP1 MTAP-intact; 1000 to 10000 nM in the experiment with HAP1 MTAP-deleted. On PRMT5 [3], the “SAM/MTA Ratio” value is “A (a Ki ratio greater than or equal to 10 fold between the Ki in the presence of SAM and the Ki in the presence of MTA)”. Moreover, the “MTAP Intact/Deleted Ratio” value with HAP1 MTAP-deleted was “C* (an IC50 ratio of less than 3 fold between the IC50 in the HAP1 MTAP-intact cell line and the HAP1 MTAP-deleted cell line)”.

Consider `CCN(C)c1nc(NC2COC2)cc(C(=O)NC[C@H](O)CN2CCc3cc(OCc4cnco4)ccc3C2)n1` [Compound 289], for which the concentration for half-maximal inhibition (IC50) was 50 to 500 nM on PRMT5 [1]; 500 to 5000 nM on PRMT5 [2]; 50 to 500 nM at PRMT5 [3]; 1000 to 10000 nM in the experiment on HAP1 MTAP-intact; 1000 to 10000 nM with HAP1 MTAP-deleted. The “SAM/MTA Ratio” value at PRMT5 [3] was “A (a Ki ratio greater than or equal to 10 fold between the Ki in the presence of SAM and the Ki in the presence of MTA)”. For the same molecule, the “MTAP Intact/Deleted Ratio” value in the experiment with HAP1 MTAP-deleted was “B* (an IC50 ratio greater than or equal to 3 fold but lower than 10 fold between the IC50 in the HAP1 MTAP-intact cell line and the HAP1 MTAP-deleted cell line)”.

On to `O=C(NC[C@H](O)CN1CCc2cc(OCc3cnco3)ccc2C1)c1cc(NC2COC2)nc(N2CCN(C(=O)C3CC3)CC2)n1` [Compound 290, (S)-2-(4-(cyclopropanecarbonyl)piperazin-1-yl)-N-(2-hydroxy-3-(6-(oxazol-5-ylmethoxy)-3,4-dihydroisoquinolin-2(1H)-yl)propyl)-6-(oxetan-3-ylamino)pyrimidine-4-carboxamide], for which the IC50 on PRMT5 [1] lay in the range of 50 to 500 nM; on PRMT5 [2], 500 to 5000 nM; on PRMT5 [3], 50 to 500 nM; in the experiment with HAP1 MTAP-intact, 1000 to 10000 nM; with HAP1 MTAP-deleted it was 1000 to 10000 nM. For the same molecule, the “SAM/MTA Ratio” value on PRMT5 [3] is “A (a Ki ratio greater than or equal to 10 fold between the Ki in the presence of SAM and the Ki in the presence of MTA)”. Further, in the experiment on HAP1 MTAP-deleted, the “MTAP Intact/Deleted Ratio” value was “B* (an IC50 ratio greater than or equal to 3 fold but lower than 10 fold between the IC50 in the HAP1 MTAP-intact cell line and the HAP1 MTAP-deleted cell line)”.

In the case of `O=C(NC[C@H](O)CN1CCc2cc(OCc3cnco3)ccc2C1)c1ccc(OC2CCN(Cc3ccccc3)CC2)cc1` [Compound 291, (S)-4-((1-benzylpiperidin-4-yl)oxy)-N-(2-hydroxy-3-(6-(oxazol-5-ylmethoxy)-3,4-dihydroisoquinolin-2(1H)-yl)propyl)benzamide], the IC50 at PRMT5 [1] is 50 to 500 nM; on PRMT5 [2], 500 to 5000 nM; on PRMT5 [3] it was 50 to 500 nM; with HAP1 MTAP-intact, 1000 to 10000 nM; with HAP1 MTAP-deleted it was 1000 to 10000 nM. The “MTAP Intact/Deleted Ratio” value in the experiment with HAP1 MTAP-deleted was “C* (an IC50 ratio of less than 3 fold between the IC50 in the HAP1 MTAP-intact cell line and the HAP1 MTAP-deleted cell line)”.

Turning to `O=C(NC[C@H](O)CN1CCc2cc(OCc3cnco3)ccc2C1)c1cc(NC2CCC2)nc(N2CCOCC2)c1` [Compound 292, (S)-2-(cyclobutylamino)-N-(2-hydroxy-3-(6-(oxazol-5-ylmethoxy)-3,4-dihydroisoquinolin-2(1H)-yl)propyl)-6-morpholinoisonicotinamide], the IC50 is 50 to 500 nM on PRMT5 [1]; 500 to 5000 nM at PRMT5 [2]; 50 to 500 nM on PRMT5 [3]; not below 10000 nM in the experiment on HAP1 MTAP-intact; 1000 to 10000 nM with HAP1 MTAP-deleted. For the same molecule, the “SAM/MTA Ratio” value on PRMT5 [3] was “A (a Ki ratio greater than or equal to 10 fold between the Ki in the presence of SAM and the Ki in the presence of MTA)”. The “MTAP Intact/Deleted Ratio” value in the experiment with HAP1 MTAP-deleted was “C* (an IC50 ratio of less than 3 fold between the IC50 in the HAP1 MTAP-intact cell line and the HAP1 MTAP-deleted cell line)”.

With `CC(C)N1CCN(c2nc(NC3COC3)cc(C(=O)NC[C@H](O)CN3CCc4c(ccc(OCc5cnco5)c4Cl)C3)n2)CC1` [Compound 293, (S)—N-(3-(5-chloro-6-(oxazol-5-ylmethoxy)-3N-dihydroisoquinolin-2(1H)-yl)-2-hydroxypropyl)-2-(4-isopropylpiperazin-1-yl)-6-(oxetan-3-ylamino)pyrimidine-4-carboxamide], the IC50 on PRMT5 [1] was 500 to 5000 nM; at PRMT5 [2], 500 to 5000 nM; on PRMT5 [3] it was 50 to 500 nM; in the experiment with HAP1 MTAP-intact, not below 10000 nM; in the experiment with HAP1 MTAP-deleted, not below 10000 nM. The “SAM/MTA Ratio” value at PRMT5 [3] is “A (a Ki ratio greater than or equal to 10 fold between the Ki in the presence of SAM and the Ki in the presence of MTA)”. In addition, in the experiment with HAP1 MTAP-deleted, the “MTAP Intact/Deleted Ratio” value was “C* (an IC50 ratio of less than 3 fold between the IC50 in the HAP1 MTAP-intact cell line and the HAP1 MTAP-deleted cell line)”.

As to `CCCN(C)c1nc(NC2COC2)cc(C(=O)NC[C@H](O)CN2CCc3cc(OCc4cnco4)ccc3C2)n1` [Compound 294, (S)—N-(2-hydroxy-3-(6-(oxazol-5-ylmethoxy)-3,4-dihydroisoquinolin-2(1H)-yl)propyl)-2-(methyl(propyl)amino)-6-(oxetan-3-ylamino)pyrimidine-4-carboxamide], the IC50 is 50 to 500 nM at PRMT5 [1]; 500 to 5000 nM on PRMT5 [2]; 50 to 500 nM at PRMT5 [3]; 1000 to 10000 nM in the experiment on HAP1 MTAP-intact; less than 1000 nM in the experiment with HAP1 MTAP-deleted. Moreover, at PRMT5 [3], the “SAM/MTA Ratio” value is “A (a Ki ratio greater than or equal to 10 fold between the Ki in the presence of SAM and the Ki in the presence of MTA)”. Also, in the experiment with HAP1 MTAP-deleted, the “MTAP Intact/Deleted Ratio” value was “C* (an IC50 ratio of less than 3 fold between the IC50 in the HAP1 MTAP-intact cell line and the HAP1 MTAP-deleted cell line)”.

As to `COCCN(C)c1nc(NC2COC2)cc(C(=O)NC[C@H](O)CN2CCc3cc(OCc4cnco4)ccc3C2)n1` [Compound 295, (S)—N-(2-hydroxy-3-(6-(oxazol-5-ylmethoxy)-3N-dihydroisoquinolin-2(1H)-yl)propyl)-2-((2-methoxyethyl)(methyl)amino)-6-(oxetan-3-ylamino)pyrimidine-4-carboxamide], the IC50 at PRMT5 [1] was 50 to 500 nM; at PRMT5 [2], 500 to 5000 nM; on PRMT5 [3] it was 50 to 500 nM; in the experiment with HAP1 MTAP-intact it was less than 1000 nM; with HAP1 MTAP-deleted, less than 1000 nM. The “SAM/MTA Ratio” value on PRMT5 [3] is “A (a Ki ratio greater than or equal to 10 fold between the Ki in the presence of SAM and the Ki in the presence of MTA)”. Moreover, the “MTAP Intact/Deleted Ratio” value in the experiment on HAP1 MTAP-deleted is “C* (an IC50 ratio of less than 3 fold between the IC50 in the HAP1 MTAP-intact cell line and the HAP1 MTAP-deleted cell line)”.
